One compound from US6525089B1, “Pharmaceutical composition containing decursin” (Binex Co., Ltd., priority 1998, dated 2003) can be followed below.

Structures are written as SMILES.

Data set [1] is described as follows: Body weight, alloxan-treated mice. Format: in vivo. The settings on record: ICR mice, alloxan + decursin 50 mg/kg orally for 10 days. On the procedure:
2 days after ICR mice were given alloxan (75 mg/kg, i.v.), their glucose levels at fasting were measured to select high-glucose mice. The high-glucose mice were divided into two groups; physiological saline solution was given to one group, while decursin was orally administered to the other group at a dose of 50 mg/kg for 10 days. The alloxan-free group was also orally given physiological saline solution for 10 days. The body weighs were checked periodically, together with urinary tests. To isolate their sera and kidney, mice were slightly anesthetized with ether and their abdomens were dissected. The blood samples were collected from heart to isolate the sera. The kidney was perfused with 0.9% NaCl and isolated after removal of the blood. Then the weight of right kidney was measured. Further, to measure the protein amount from the kidney tissues, these tissues were assayed according to the Bradford method using Bio-Rad protein assay kit in the presence of bovine serum albumin as a reference standard. […] The supernatant was collected to measure the absorbance at 532 nm. […] The supernatant was collected to measure the absorbance at 532 nm. […]

For another data set, the system named is normal cells (LLC-PK1). Kind of data set: Cytotoxicity test on normal cells. Format: cell-based. Conditions: 3 days. The procedure: To determine the cytotoxicity of decursin on normal cells, they were sub-cultured in a medium-199 containing, 3% fetal bovine serum (FBS), penicillin (100 U/ml) and streptomycin (100 μg/ml) every 3 to 4 day. Then cells were treated with trypsin to prepare a cell suspension. 1 ml of the cell suspension was seeded on 24-well plate at a concentration of 2×10^5 in cells/ml an d attached to the medium for one day. After the supernatant was removed, 1 ml of decursin was added to the cell culture medium at appropriate concentrations and incubated for 3 days to count the cell numbers.

Data set [2] deals with U-937 cells. Put plainly: Phagocytosis test. Format: cell-based, human. The settings on record: 1 × 10^−7M, incubated 4 days. The procedure: (§1) U-937 cells were plated on a cell culture dish at a concentration of 2×10^5 cells/ml in a medium containing 10^−7M decursin and incubated in a 5% CO2 incubator at 37° C.
In the phagocytosis test, 10^6 cells were well stirred and pelleted by centrifugation at 2000 rpm for 5 minutes. 1 ml of 0.2% serum free medium solution in polystyrene particle were added to the pellets, swayed and incubated at 37° C. for 4 hours. After being washed with phosphate buffered saline (PBS) three times, cell pellets were harvested and then about 200 μl of DPBS was added. The solution was lightly swayed and checked under a microscope to observe a minimum number of 200 cells. The number of cells containing the particles was calculated by percentage.
The results of phagocytosis test designed to assess the functional change according to differentiation of U-937 cells was shown in the following Table 8.

Data set [3] concerns U-937 cells. Kind of data set: Esterase activity test: α-naphthyl acetate esterase. Format: cell-based, human. Conditions: percentage of cells showing activity. The procedure:
To determine α-naphthyl acetate esterase activity in the esterase activity test, the cultured solution of U-937 cells was pelleted by centrifugation at 2000 rpm for 5 minutes, followed by the addition of 100 μl PBS to prepare a cell-concentrated solution. A drop of the cell solution was put on a slide glass and dried for more than 1 hour. Then 40 ml of deionized water was preheated at 37° C. 1 ml of […] solution was mixed with 1 ml of Fast Blue BB base solution and left for 2 minutes. The mixture, being turned to yellow color with thick brown, was added to 40 ml of the preheated deionized water. After the addition of 5 ml of TRIZMAL TM 7.6 buffer solution (Sigma Co. 870-2) and 1 ml of α-naphthyl acetate solution, the resulting solution, which was turned to green color, was poured into a petri dish. The cells on a slide glass were fixed with citrate-acetone-formaldehyde solution (CAF solution) at room temperature. The cells were soaked in the previously prepared solution and incubated at 37° C. for 30 minutes at a dark place. The cells were completely washed with deionized water for more than 2 minutes and counterstained with hematoxylin solution for 2 minutes, washed with tap water and dried in the air. After completely dried, the cells were observed under a microscope to determine the blackish cell numbers.
Thus it was considered that the cells were differentiated into macrophage.like cells by the action of decursin.

Data set [4] deals with U-937 cells. Put plainly: NBT reduction test. The format is cell-based, human. Conditions: 1 × 10^−7M, incubated 4 days. On the procedure: as §1
In the nitrobluetetrazolium (NBT) reduction test, cell solution (about 1×10^6 cells/ml) was well stirred and pelleted by centrifugation at 2000 rpm for 5 minutes. The pellets were suspended in 0.5 ml of medium, followed by the addition of a mixing solution (0.5 ml) containing 10^−6M formyl-methionine leucine phenylalanine (fMLP) and NBT 1.0 mg/DPBSml (1:9). The mixture was incubated at 37° C. for 30 minutes. The reaction was stopped in ice bath and centrifuged at 2000 rpm for 5 minutes. The supernatant was removed and then 200 μl of DPBS was added. The solution was lightly swayed and checked under a microscope to observe a minimum number of 200 cells. The number of NBT (+) cells was calculated by percentage.
The differentiation was investigated by using the fact that the differentiated leukocyte cells may generate superoxide anion by stimulation. […] The cultured mixture, which was reacted with superoxide, was reduced to form a precipitate. Then NBT was added to the precipitate (Table 7).

In the case of `CC(C)=CC(=O)O[C@H]1Cc2cc3ccc(=O)oc3cc2OC1(C)C` [decursin], in data set [1], the “weight loss of the alloxan-treated group” value was “significantly reduced”. Also, the “Growth inhibition rate (%)” value with normal cells (LLC-PK1) (1 × 10^−6M), in the data set on normal cells (LLC-PK1) (1 × 10^−7M), with normal cells (LLC-PK1) (1 × 10^−8M), in the data set on normal cells (LLC-PK1) (5 × 10^−7M) and with normal cells (LLC-PK1) (5 × 10^−8M) was 0.0 ± 0.0% throughout. The “Phagocytosis test: cells showing phagocytosis activity” value was found to be 28.6% in the data set on U-937 cells [2] and 28.6 ± 1.2% in the data set on U-937 cells [2] (listed as Decursin). Moreover, the “α-Naphtylacetate esterase Activity (%)” value in the data set with U-937 cells [3] turned out to be 83%; in the data set with U-937 cells [3] (listed as Decursin), 83.3 ± 3.0%. Besides, the “NBT reduction test: positive cells” value with U-937 cells [4] came out at 43%; in the data set with U-937 cells [4] (listed as Decursin) it was 43.1 ± 4.0%.
